Consider seven compounds from the Deep4Chem optical property database.

This series is described as follows: photoluminescence quantum yield (fraction); solvent given as SMILES.

With `CCCN(c1ccccc1)c1ccc2c(c1)C(CC)(CC)c1cc(/C=C/c3ccc(/C=C(\C#N)C(=O)O)s3)ccc1-2`, the photoluminescence quantum yield runs as follows: (in C1CCOC1) 0.355; (in C1COCCO1) 0.862; (in CC#N) 0.229; (in CC(C)=O) 0.486; (in CCOC(C)=O) 0.584; (in CN(C)C=O) 0.894. This compound also came in with a photoluminescence quantum yield (in CS(C)=O) of 0.611 and a photoluminescence quantum yield (in ClCCl) of 0.624.

`COC(=O)C12N=N[C@](C(=O)OC)(C3C4C=CC(C4)C31)[C@@H]1C[C@H]12` (stereo partly drawn) gave a photoluminescence quantum yield (in CC#N) of 0.034.

In turn, `Cc1cccn2c1cc1c3ccccc3nc(-c3cccs3)c12` showed a photoluminescence quantum yield (in CS(C)=O) of 0.2.

On to `O=C([O-])c1c(Cl)c(Cl)c(Cl)c(Cl)c1-c1c2cc(I)c(=O)c(I)c-2oc2c(I)c([O-])c(I)cc12`, for which the photoluminescence quantum yield reads like this: (in CC(C)O) 0.14; (in CCO) 0.11; (in CO) 0.08; (in O) 0.018.

Take `CN1C(C(=O)Nc2ccccn2)=C(O)c2sccc2S1(=O)=O`: the photoluminescence quantum yield reads like this: (in C1COCCO1) 0.0191; (in CC#N) 0.00752; (in CCCCO) 0.0169; (in CCCO) 0.0108; (in CCO) 0.00738; (in CCOC(C)=O) 0.0275. The same compound came in with a photoluminescence quantum yield (in CO) of 0.00499.

`CN(C)c1ccc(C#Cc2cc(C#Cc3ccc(N(C)C)cc3)c3ccc4c(C#Cc5ccc(N(C)C)cc5)cc(C#Cc5ccc(N(C)C)cc5)c5ccc2c3c54)cc1` gave a photoluminescence quantum yield (in ClCCl) of 0.6.

In turn, `C(=C\c1ccc(N(c2ccccc2)c2ccccc2)cc1)/c1ccc(/C=C/c2ccc(N(c3ccccc3)c3ccccc3)cc2)cc1` returned a photoluminescence quantum yield (in Cc1ccccc1) of 0.82.
